Test results as given in ChEMBL document CHEMBL5046316, “Structure-Based Optimization of a Fragment-like TLR8 Binding Screening Hit to an In Vivo Efficacious TLR7/8 Antagonist” (ACS Med Chem Lett, 2022).

What was measured:
[1] = target: T1, Toll-like receptor 8 (Homo sapiens, UniProt Q9NR97); experiment: Antagonist activity at human TLR8 expressed in Drosophila S2 by TR-FRET assay
T1 sequence (Q9NR97 whole entry): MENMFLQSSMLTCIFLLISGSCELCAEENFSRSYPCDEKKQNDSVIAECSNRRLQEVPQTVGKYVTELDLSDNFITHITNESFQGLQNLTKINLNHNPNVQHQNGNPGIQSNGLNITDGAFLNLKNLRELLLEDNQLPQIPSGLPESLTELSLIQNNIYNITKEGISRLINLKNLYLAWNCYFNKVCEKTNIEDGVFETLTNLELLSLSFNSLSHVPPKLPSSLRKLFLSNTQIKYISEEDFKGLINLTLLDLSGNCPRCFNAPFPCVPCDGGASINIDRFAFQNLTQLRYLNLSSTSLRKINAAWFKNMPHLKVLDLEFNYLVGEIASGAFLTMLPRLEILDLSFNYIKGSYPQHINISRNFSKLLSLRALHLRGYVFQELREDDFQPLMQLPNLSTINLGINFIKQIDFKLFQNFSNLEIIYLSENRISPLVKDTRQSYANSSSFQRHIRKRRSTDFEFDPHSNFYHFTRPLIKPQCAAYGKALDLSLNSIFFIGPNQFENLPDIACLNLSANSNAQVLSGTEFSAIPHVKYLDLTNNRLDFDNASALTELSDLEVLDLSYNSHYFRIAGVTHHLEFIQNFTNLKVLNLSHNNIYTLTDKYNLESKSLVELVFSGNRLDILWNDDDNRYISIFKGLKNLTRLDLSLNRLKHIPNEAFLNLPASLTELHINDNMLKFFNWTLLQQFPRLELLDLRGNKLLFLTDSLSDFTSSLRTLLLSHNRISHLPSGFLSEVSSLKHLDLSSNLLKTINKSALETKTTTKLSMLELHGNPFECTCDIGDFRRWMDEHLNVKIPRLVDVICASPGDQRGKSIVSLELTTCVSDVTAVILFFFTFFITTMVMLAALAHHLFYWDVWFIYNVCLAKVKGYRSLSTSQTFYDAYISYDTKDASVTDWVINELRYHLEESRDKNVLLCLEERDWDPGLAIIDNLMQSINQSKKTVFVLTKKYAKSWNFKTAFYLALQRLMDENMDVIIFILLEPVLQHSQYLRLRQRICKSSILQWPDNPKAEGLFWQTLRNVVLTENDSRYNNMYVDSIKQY

[2] = Dissociation constant, pKa of the compound by UV spectrometric titration method; format: physicochemical
[3] = target: T1, Toll-like receptor 8; experiment: Antagonist activity at human TLR8 expressed in human PBMC cells assessed as inhibition of ssRNA stimulated TNF level preincubated for 30 mins followed by stimulation and measured after 20 hrs by multiplate reader assay; format: cell-based
[4] = target: T2, Toll-like receptor 7 (Homo sapiens, UniProt Q9NYK1); experiment: Antagonist activity at human TLR7 expressed in human PBMC cells assessed as inhibition of ssRNA stimulated IFNalpha level preincubated for 30 mins followed by stimulation and measured after 20 hrs by AlphaLISA method; format: cell-based
T2 sequence (Q9NYK1 whole entry): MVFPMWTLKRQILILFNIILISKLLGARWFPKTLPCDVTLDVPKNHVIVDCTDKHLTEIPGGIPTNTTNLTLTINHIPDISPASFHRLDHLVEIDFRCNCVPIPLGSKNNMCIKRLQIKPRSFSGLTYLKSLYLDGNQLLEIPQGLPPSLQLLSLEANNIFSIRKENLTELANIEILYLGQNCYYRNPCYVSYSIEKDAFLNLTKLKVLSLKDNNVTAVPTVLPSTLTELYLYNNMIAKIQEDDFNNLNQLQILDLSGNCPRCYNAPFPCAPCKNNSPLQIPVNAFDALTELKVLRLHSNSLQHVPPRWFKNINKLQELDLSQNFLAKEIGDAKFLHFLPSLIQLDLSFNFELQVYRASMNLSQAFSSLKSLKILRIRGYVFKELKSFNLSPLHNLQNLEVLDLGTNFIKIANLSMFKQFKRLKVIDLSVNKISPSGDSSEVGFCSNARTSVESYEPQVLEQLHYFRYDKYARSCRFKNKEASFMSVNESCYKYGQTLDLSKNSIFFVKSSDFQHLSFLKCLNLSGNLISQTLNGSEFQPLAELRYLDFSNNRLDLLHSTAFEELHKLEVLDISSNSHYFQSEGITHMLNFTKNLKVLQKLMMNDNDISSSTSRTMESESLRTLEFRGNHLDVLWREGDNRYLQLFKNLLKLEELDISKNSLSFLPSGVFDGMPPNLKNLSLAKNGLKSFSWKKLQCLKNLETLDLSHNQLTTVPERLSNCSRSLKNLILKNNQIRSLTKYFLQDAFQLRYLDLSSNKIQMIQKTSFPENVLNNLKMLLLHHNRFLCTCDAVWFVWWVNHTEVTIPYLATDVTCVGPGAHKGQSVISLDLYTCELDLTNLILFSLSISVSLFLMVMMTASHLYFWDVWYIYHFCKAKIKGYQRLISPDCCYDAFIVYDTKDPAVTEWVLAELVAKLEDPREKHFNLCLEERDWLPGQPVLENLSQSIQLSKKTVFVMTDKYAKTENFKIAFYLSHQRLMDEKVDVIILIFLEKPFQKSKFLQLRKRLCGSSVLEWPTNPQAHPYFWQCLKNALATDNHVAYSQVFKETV

[5] = Octanol/water partition coefficient, logD of compound at pH 7.4 measured after 4 hrs by shake flask method; format: physicochemical
[6] = target: Voltage-gated inwardly rectifying potassium channel KCNH2 (Homo sapiens, UniProt Q12809); experiment: Inhibition of human ERG; format: toxicity
Chain of Voltage-gated inwardly rectifying potassium channel KCNH2 (Q12809 whole entry): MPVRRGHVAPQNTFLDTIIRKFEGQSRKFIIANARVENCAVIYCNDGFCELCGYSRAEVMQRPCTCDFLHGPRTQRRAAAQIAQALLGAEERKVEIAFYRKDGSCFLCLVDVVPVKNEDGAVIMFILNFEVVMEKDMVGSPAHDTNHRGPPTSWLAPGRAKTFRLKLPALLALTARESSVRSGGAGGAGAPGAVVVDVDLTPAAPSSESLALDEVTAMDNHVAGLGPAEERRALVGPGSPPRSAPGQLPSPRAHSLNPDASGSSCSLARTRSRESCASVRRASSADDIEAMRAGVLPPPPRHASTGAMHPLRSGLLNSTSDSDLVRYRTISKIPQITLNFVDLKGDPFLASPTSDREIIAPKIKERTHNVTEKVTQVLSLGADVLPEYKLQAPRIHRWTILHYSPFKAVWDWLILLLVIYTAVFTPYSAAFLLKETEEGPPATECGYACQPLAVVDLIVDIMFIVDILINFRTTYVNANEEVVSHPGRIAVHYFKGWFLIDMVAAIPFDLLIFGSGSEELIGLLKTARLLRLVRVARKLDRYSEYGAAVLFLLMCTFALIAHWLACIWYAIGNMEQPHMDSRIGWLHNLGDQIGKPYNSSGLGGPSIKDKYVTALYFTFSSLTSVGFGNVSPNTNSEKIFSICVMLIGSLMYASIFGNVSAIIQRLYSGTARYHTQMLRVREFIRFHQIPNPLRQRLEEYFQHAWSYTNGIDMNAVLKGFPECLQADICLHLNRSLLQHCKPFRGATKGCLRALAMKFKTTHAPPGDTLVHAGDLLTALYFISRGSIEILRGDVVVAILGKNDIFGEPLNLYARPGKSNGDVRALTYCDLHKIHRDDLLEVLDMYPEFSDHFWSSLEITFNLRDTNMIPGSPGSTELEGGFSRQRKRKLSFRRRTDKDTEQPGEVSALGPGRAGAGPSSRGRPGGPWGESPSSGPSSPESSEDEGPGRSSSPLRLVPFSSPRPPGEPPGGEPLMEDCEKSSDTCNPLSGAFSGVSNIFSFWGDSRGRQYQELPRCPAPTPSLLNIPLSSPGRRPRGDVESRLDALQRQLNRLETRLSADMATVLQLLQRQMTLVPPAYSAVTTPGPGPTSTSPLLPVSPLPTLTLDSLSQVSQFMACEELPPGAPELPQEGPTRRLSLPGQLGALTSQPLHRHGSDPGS

[7] = target: Cytochrome P450 3A4 (Homo sapiens, UniProt P08684); experiment: Inhibition of CYP3A4 (unknown origin); format: ADME
Chain of Cytochrome P450 3A4 (P08684 whole entry): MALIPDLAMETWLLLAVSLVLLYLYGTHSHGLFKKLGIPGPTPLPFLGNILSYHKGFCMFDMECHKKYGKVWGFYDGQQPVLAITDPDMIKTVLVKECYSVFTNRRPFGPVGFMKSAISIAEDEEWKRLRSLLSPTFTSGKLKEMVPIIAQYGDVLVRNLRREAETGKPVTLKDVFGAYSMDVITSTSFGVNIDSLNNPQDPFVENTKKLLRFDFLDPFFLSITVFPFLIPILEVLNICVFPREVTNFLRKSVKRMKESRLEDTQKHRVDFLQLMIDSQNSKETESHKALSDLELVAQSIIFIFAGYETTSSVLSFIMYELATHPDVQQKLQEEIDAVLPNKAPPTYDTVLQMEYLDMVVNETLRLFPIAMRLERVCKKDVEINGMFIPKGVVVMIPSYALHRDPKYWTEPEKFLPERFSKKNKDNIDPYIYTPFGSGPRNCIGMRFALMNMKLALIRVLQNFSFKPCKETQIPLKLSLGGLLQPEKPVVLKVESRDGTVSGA

[8] = Dose normalized Cmax in C57BL/6 mouse at 3 mg/kg, po and 1 mg/kg, iv administered as cassette dose measured upto 24 hrs by LC/MS/MS analysis; format: ADME, organism-based; details: in vivo
[9] = Dose normalized AUC in C57BL/6 mouse at 3 mg/kg, po and 1 mg/kg,iv administered as cassette dose measured upto 24 hrs by LC/MS/MS analysis; format: ADME, organism-based; design: dose 3 mg/kg, time <=24; details: in vivo
[10] = Oral bioavailability in C57BL/6 mouse at 3 mg/kg administered as cassette dose measured upto 24 hrs by LC/MS/MS analysis; format: ADME, organism-based; details: in vivo
[11] = Clearance in C57BL6 mouse at 3 mg/kg, po or 1mg/kg, iv administered as cassette dose measured upto 24 hrs by LC/MS/MS analysis; format: ADME, organism-based; details: in vivo
[12] = Volume of distribution at steady state in C57BL/6 mouse at 3 mg/kg, po or 1 mg/kg, iv administered as cassette dose measured upto 24 hrs by LC/MS/MS analysis; format: ADME, organism-based; details: in vivo, read-out: Vdss
[13] = MRT in C57BL/6 mouse at 3 mg/kg, po or 1 mg/kg, iv administered as cassette dose measured upto 24 hrs by LC/MS/MS analysis; format: ADME, organism-based; details: in vivo
[14] = target: T3, Toll-like receptor 9 (Homo sapiens, UniProt Q9NR96); experiment: Antagonist activity at human TLR9 expressed in human PBMC cells assessed as inhibition of ODN2216 stimulated IFNalpha level preincubated for 30 mins followed by stimulation and measured after 20 hrs by AlphaLISA method; format: cell-based
T3 sequence (Q9NR96 whole entry): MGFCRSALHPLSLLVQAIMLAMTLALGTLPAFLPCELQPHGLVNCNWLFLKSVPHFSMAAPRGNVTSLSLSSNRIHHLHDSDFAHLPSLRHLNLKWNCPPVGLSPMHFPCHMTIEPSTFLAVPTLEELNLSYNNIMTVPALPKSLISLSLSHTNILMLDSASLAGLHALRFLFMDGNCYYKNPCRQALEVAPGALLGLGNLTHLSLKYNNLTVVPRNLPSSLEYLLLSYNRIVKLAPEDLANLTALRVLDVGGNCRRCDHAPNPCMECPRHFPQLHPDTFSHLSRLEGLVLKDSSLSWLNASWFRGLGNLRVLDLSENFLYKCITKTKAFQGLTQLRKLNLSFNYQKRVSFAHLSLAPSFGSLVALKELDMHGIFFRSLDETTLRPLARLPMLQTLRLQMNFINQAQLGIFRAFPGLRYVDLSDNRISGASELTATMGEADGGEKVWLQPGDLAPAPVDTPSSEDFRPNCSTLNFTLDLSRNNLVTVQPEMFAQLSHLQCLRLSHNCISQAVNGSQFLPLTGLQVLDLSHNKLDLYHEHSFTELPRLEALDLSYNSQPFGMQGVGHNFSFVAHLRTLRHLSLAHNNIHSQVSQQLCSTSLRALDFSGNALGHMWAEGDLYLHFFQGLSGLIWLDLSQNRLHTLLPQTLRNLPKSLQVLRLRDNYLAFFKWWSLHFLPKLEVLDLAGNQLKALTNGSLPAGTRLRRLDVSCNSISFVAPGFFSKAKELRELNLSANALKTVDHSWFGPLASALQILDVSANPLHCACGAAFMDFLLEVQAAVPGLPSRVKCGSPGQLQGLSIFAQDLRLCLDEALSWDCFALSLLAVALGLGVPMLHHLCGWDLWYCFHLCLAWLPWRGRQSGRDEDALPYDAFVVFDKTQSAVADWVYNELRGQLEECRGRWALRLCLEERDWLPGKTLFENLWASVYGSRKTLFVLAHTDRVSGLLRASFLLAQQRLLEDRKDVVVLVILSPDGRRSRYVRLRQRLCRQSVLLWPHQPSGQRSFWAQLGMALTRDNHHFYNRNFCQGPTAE

[15] = target: Toll-like receptor 4 (Homo sapiens, UniProt O00206); experiment: Antagonist activity at human TLR4 expressed in human PBMC cells assessed as inhibition of LPS stimulated TNF level preincubated for 30 mins followed by stimulation and measured after 20 hrs by multiplate reader assay; format: cell-based
Chain of Toll-like receptor 4 (O00206 whole entry): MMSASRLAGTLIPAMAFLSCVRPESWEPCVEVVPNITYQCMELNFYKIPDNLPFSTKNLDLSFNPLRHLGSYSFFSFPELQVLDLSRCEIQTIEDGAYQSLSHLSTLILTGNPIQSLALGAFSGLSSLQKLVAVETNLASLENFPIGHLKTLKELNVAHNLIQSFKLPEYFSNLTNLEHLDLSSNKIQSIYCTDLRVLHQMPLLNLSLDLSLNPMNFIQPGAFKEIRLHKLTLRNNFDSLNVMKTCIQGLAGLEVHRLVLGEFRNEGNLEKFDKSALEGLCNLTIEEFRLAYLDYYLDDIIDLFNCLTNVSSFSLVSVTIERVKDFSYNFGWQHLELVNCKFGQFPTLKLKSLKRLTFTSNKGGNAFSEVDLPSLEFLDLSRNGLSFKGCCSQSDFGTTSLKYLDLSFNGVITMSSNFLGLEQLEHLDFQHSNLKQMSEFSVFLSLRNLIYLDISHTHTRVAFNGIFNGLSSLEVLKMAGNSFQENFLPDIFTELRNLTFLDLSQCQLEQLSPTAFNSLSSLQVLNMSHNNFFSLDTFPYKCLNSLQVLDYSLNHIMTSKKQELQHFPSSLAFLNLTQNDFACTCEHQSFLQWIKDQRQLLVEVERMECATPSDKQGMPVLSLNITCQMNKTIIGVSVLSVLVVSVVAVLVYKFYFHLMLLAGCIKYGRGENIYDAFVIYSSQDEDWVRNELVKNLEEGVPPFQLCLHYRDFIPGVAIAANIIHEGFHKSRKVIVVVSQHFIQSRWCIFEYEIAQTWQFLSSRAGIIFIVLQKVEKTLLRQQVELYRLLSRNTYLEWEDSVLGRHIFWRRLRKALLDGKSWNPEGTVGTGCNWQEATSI

[16] = Permeability of compound in dog MDCK cells; format: ADME, cell-based, Canis lupus familiaris; details: read-out: permeability

COc1cc2c(C(=O)N3CCN(C)CC3)n[nH]c2cc1-c1cc(C)nc(C)c1
IC50 [1]: 23 nM | pKa [2]: 6.7 | IC50 [3]: 2.5 nM

COc1cc2c(C(=O)N3CCN(C)CC3)n[nH]c2cc1-c1ccnc(C)c1F
IC50 [1]: 14 nM | pKa [2]: 3.7 | IC50 [3]: 1.2 nM | IC50 [4]: > 980 nM

Cc1cc(-c2cc3[nH]nc(N[C@H]4CCNC[C@@H]4F)c3cc2C2CC2)cc(C)n1
pKa [2]: 6.7 | IC50 [4]: 9 nM

Cc1nccc(-c2cc3[nH]nc(N[C@H]4CCNC[C@@H]4F)c3cc2C2CC2)c1F
pKa [2]: 3.9 | logD at 4 h [5]: 2.5 | IC50 [6]: 19000 nM | IC50 [7]: 4500 nM | Cp(f)/dose [8]: 155 nM/mg/kg | AUC [9]: 635 nM·h/mg/kg | bioavailability [10]: 43% | clearance [11]: 28 mL/min/kg | Vd [12]: 3.1 L/kg | MRT [13]: 1.8 h | IC50 [4]: 0.1 nM

COc1cc2cc[nH]c2cc1-c1ccncc1
IC50 [1]: 2 nM | pKa [2]: 5.8 | IC50 [3]: 3600 nM | IC50 [4]: 1700 nM | IC50 [14]: > 3600 nM | IC50 [15]: > 10000 nM | Papp [16]: 33 ×10⁻⁶ cm/s

COc1cc2c(C(=O)N3CCN(C)CC3)n[nH]c2cc1-c1ccncc1
pKa [2]: 5.3 | IC50 [4]: 220 nM

COc1cc2c(NC3CCN(C)CC3)n[nH]c2cc1-c1cc(C)nc(C)c1
pKa [2]: 6.7

Cc1cc2c(NC3CCN(C)CC3)n[nH]c2cc1-c1ccnc(C)c1F
pKa [2]: 3.9 | IC50 [4]: 1 nM

COc1cc2c(NC3CCN(C)CC3)n[nH]c2cc1-c1ccnc(C)c1F
pKa [2]: 4

COc1cc2c(NC3CCN(C)CC3)n[nH]c2cc1-c1ccncc1
pKa [2]: 5.2 | IC50 [4]: 3 nM

COc1cc(-c2cc3[nH]nc(NC4CCN(C)CC4)c3cc2OC)ccn1
pKa [2]: 3.4 | IC50 [4]: 11 nM

COc1cc2cn[nH]c2cc1-c1ccncc1
IC50 [1]: 51 nM | pKa [2]: 5.4 | IC50 [3]: > 9300 nM | Papp [16]: 38 ×10⁻⁶ cm/s

Cc1nccc(-c2cc3[nH]nc(NC4CCN(C)CC4)c3cc2C2CC2)c1F
IC50 [1]: 3.6 nM | pKa [2]: 3.9 | logD at 4 h [5]: 2.5 | IC50 [6]: 11000 nM | IC50 [7]: > 25000 nM | Cmax/dose [8]: 113 nM/mg/kg | AUC [9]: 485 nM·h/mg/kg | bioavailability [10]: 53% | clearance [11]: 49 mL/min/kg | Vd [12]: 4.4 L/kg | MRT [13]: 1.5 h | IC50 [3]: 0.08 nM | IC50 [4]: 0.39 nM
